Source: the supplement of paper PMC10307832

How the values were obtained:
Assay in all cases: relative viability (nuclei count vs DMSO), 5 days (fraction); higher = more cells survive
201T = test system: 201T
Method in brief: (§1)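 Lung cancer cell lines in 1536-well plates got either a single drug or a fixed anchor-drug dose together with five library-drug doses (not always all listed) in √10 steps, by pin tool, on the day after seeding. Nuclei were counted after 5 days, and relative viability is the treated-to-vehicle ratio of nuclei counts. Values are medians of duplicate plates.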

NCI-H1437 = test system: NCI-H1437
Method in brief: as §1

PC-3 [JPC-3] = test system: PC-3 [JPC-3]
Method in brief: as §1

HCC-78 = test system: HCC-78
Method in brief: as §1

NCI-H1734 = test system: NCI-H1734
Method in brief: as §1

UMC-11 = test system: UMC-11
Method in brief: as §1

SW 1573 = test system: SW 1573
Method in brief: as §1

HCC-44 = test system: HCC-44
Method in brief: as §1

LU99A = test system: LU99A
Method in brief: as §1

NCI-H441 = test system: NCI-H441
Method in brief: as §1

NCI-H1355 = test system: NCI-H1355
Method in brief: as §1

HCC-366 = test system: HCC-366
Method in brief: as §1

NCI-H2126 = test system: NCI-H2126
Method in brief: as §1

NCI-H358 = test system: NCI-H358
Method in brief: as §1

NCI-H727 = test system: NCI-H727
Method in brief: as §1

NCI-H520 = test system: NCI-H520
Method in brief: as §1

NCI-H2009 = test system: NCI-H2009
Method in brief: as §1

BEN = test system: BEN
Method in brief: as §1

NCI-H2347 = test system: NCI-H2347
Method in brief: as §1

NCI-H838 = test system: NCI-H838
Method in brief: as §1

HARA = test system: HARA
Method in brief: as §1

NCI-H2405 = test system: NCI-H2405
Method in brief: as §1

COCC1(CO)C(=O)C2CCN1CC2 (stereo not drawn) [PRIMA-1MET] + C[C@@H](Oc1cc(-c2cnn(C3CCNCC3)c2)cnc1N)c1c(Cl)ccc(F)c1Cl [Crizotinib] (partner 1 µM) was tested, and the relative viability (201T; first compound 0.2 µM) was 1.11, the relative viability (201T; first compound 0.6325 µM) was 1 and the relative viability (201T; first compound 2 µM) was 0.901. It also gave a relative viability (201T; first compound 6.325 µM) of 1.06, a relative viability (201T; first compound 20 µM) of 1.04 and a relative viability (NCI-H1437; first compound 0.2 µM) of 1.07. For the same compound, the relative viability (NCI-H1437; first compound 0.6325 µM) was 0.896, the relative viability (NCI-H1437; first compound 2 µM) was 0.9 and the relative viability (NCI-H1437; first compound 6.325 µM) was 0.991. The relative viability (NCI-H1437; first compound 20 µM) was 0.862, the relative viability (PC-3 [JPC-3]; first compound 0.2 µM) was 0.995 and the relative viability (PC-3 [JPC-3]; first compound 0.6325 µM) was 0.911. It also gave a relative viability (PC-3 [JPC-3]; first compound 2 µM) of 0.966, a relative viability (PC-3 [JPC-3]; first compound 6.325 µM) of 1.07 and a relative viability (PC-3 [JPC-3]; first compound 20 µM) of 0.951. For the same compound, the relative viability (HCC-78; first compound 0.2 µM) was 0.427, the relative viability (HCC-78; first compound 0.6325 µM) was 0.34 and the relative viability (HCC-78; first compound 6.325 µM) was 0.353. For the same compound, the relative viability (HCC-78; first compound 20 µM) was 0.0613, the relative viability (NCI-H1734; first compound 0.2 µM) was 0.696 and the relative viability (NCI-H1734; first compound 0.6325 µM) was 0.573. It also gave a relative viability (NCI-H1734; first compound 2 µM) of 0.614, a relative viability (NCI-H1734; first compound 6.325 µM) of 0.677 and a relative viability (NCI-H1734; first compound 20 µM) of 0.171. For the same compound, the relative viability (UMC-11; first compound 0.2 µM) was 0.536, the relative viability (UMC-11; first compound 0.6325 µM) was 0.643 and the relative viability (UMC-11; first compound 2 µM) was 0.607. For the same compound, the relative viability (UMC-11; first compound 6.325 µM) was 0.726, the relative viability (UMC-11; first compound 20 µM) was 0.586 and the relative viability (SW 1573; first compound 0.2 µM) was 0.935. For the same compound, the relative viability (SW 1573; first compound 0.6325 µM) was 0.571, the relative viability (SW 1573; first compound 2 µM) was 0.843 and the relative viability (SW 1573; first compound 6.325 µM) was 0.276. For the same compound, the relative viability (SW 1573; first compound 20 µM) was 0.0264, the relative viability (HCC-44; first compound 0.2 µM) was 0.83 and the relative viability (HCC-44; first compound 0.6325 µM) was 0.67. The relative viability (HCC-44; first compound 2 µM) was 0.867, the relative viability (HCC-44; first compound 6.325 µM) was 0.86 and the relative viability (HCC-44; first compound 20 µM) was 0.807. The relative viability (LU99A; first compound 0.2 µM) was 0.564, the relative viability (LU99A; first compound 0.6325 µM) was 0.475 and the relative viability (LU99A; first compound 2 µM) was 0.576. For the same compound, the relative viability (LU99A; first compound 6.325 µM) was 0.501, the relative viability (LU99A; first compound 20 µM) was 0.0737 and the relative viability (NCI-H441; first compound 0.2 µM) was 0.934. It also gave a relative viability (NCI-H441; first compound 0.6325 µM) of 0.78, a relative viability (NCI-H441; first compound 2 µM) of 0.646 and a relative viability (NCI-H441; first compound 6.325 µM) of 0.663. It also gave a relative viability (NCI-H441; first compound 20 µM) of 0.362, a relative viability (NCI-H1355; first compound 0.2 µM) of 1.2 and a relative viability (NCI-H1355; first compound 0.6325 µM) of 1.02. It also gave a relative viability (NCI-H1355; first compound 2 µM) of 0.897, a relative viability (NCI-H1355; first compound 6.325 µM) of 1.05 and a relative viability (NCI-H1355; first compound 20 µM) of 1.03. For the same compound, the relative viability (HCC-366; first compound 0.2 µM) was 0.702, the relative viability (HCC-366; first compound 0.6325 µM) was 0.515 and the relative viability (HCC-366; first compound 6.325 µM) was 0.506. It also gave a relative viability (HCC-366; first compound 20 µM) of 0.009, a relative viability (NCI-H2126; first compound 0.2 µM) of 1.08 and a relative viability (NCI-H2126; first compound 0.6325 µM) of 1.02. It also gave a relative viability (NCI-H2126; first compound 2 µM) of 0.957, a relative viability (NCI-H2126; first compound 6.325 µM) of 1.04 and a relative viability (NCI-H2126; first compound 20 µM) of 1.04. For the same compound, the relative viability (NCI-H358; first compound 0.2 µM) was 0.688, the relative viability (NCI-H358; first compound 0.6325 µM) was 0.59 and the relative viability (NCI-H358; first compound 6.325 µM) was 0.526. For the same compound, the relative viability (NCI-H358; first compound 20 µM) was 0.152, the relative viability (NCI-H727; first compound 0.2 µM) was 0.841 and the relative viability (NCI-H727; first compound 0.6325 µM) was 0.873. It also gave a relative viability (NCI-H727; first compound 2 µM) of 0.82, a relative viability (NCI-H727; first compound 6.325 µM) of 0.715 and a relative viability (NCI-H727; first compound 20 µM) of 0.117. For the same compound, the relative viability (NCI-H520; first compound 0.2 µM) was 0.639, the relative viability (NCI-H520; first compound 0.6325 µM) was 0.841 and the relative viability (NCI-H520; first compound 6.325 µM) was 0.659. For the same compound, the relative viability (NCI-H520; first compound 20 µM) was 0.135, the relative viability (NCI-H2009; first compound 0.2 µM) was 0.99 and the relative viability (NCI-H2009; first compound 0.6325 µM) was 0.889. The relative viability (NCI-H2009; first compound 2 µM) was 1.09, the relative viability (NCI-H2009; first compound 6.325 µM) was 1.05 and the relative viability (NCI-H2009; first compound 20 µM) was 0.295. It also gave a relative viability (BEN; first compound 0.2 µM) of 0.973, a relative viability (BEN; first compound 0.6325 µM) of 0.88 and a relative viability (BEN; first compound 6.325 µM) of 0.974. The relative viability (BEN; first compound 20 µM) was 0.735, the relative viability (NCI-H2347; first compound 0.2 µM) was 0.705 and the relative viability (NCI-H2347; first compound 0.6325 µM) was 0.667. For the same compound, the relative viability (NCI-H2347; first compound 2 µM) was 0.295, the relative viability (NCI-H2347; first compound 6.325 µM) was 0.771 and the relative viability (NCI-H2347; first compound 20 µM) was 0.682. The relative viability (NCI-H838; first compound 0.2 µM) was 1.06, the relative viability (NCI-H838; first compound 0.6325 µM) was 0.755 and the relative viability (NCI-H838; first compound 2 µM) was 0.793. The relative viability (NCI-H838; first compound 6.325 µM) was 0.906, the relative viability (NCI-H838; first compound 20 µM) was 0.318 and the relative viability (HARA; first compound 0.2 µM) was 1.17. For the same compound, the relative viability (HARA; first compound 0.6325 µM) was 1.04, the relative viability (HARA; first compound 6.325 µM) was 0.987 and the relative viability (HARA; first compound 20 µM) was 0.99. The relative viability (NCI-H2405; first compound 0.2 µM) was 0.679, the relative viability (NCI-H2405; first compound 0.6325 µM) was 0.847 and the relative viability (NCI-H2405; first compound 6.325 µM) was 0.818. For the same compound, the relative viability (NCI-H2405; first compound 20 µM) was 0.452.
